Source: ChEMBL document CHEMBL4831530, “Exploring Marine-Derived Ascochlorins as Novel Human Dihydroorotate Dehydrogenase Inhibitors for Treatment of Triple-Negative Breast Cancer” (J Med Chem, 2021)
One block for each compound: values may come before it. Active and inactive are the calls of the source. The rule behind the calls is not given here.

Experiments:
MDA-MB-468 [1] = test: Cytotoxicity against human MDA-MB-468 cells assessed as reduction in cell viability incubated for 24 hrs by CellTiter-Glo luminescent assay; assay type: functional, cell-based; conditions: Homo sapiens, MDA-MB-468, 24 h
MDA-MB-231 [2] = test: Cytotoxicity against human MDA-MB-231 cells assessed as reduction in cell viability incubated for 24 hrs by CellTiter-Glo luminescent assay; assay type: functional, cell-based; conditions: Homo sapiens, MDA-MB-231, 24 h
[3] = target: Dihydroorotate dehydrogenase (quinone), mitochondrial (Homo sapiens, UniProt Q02127); test: Inhibition of recombinant N-terminal His-tagged human DHODH (31 to 395 residues) expressed in Escherichia coli using DL-dihydroorotic acid as substrate and Q0 as coenzyme by DCIP based assay
Breast cancer cell line = test: Antitumor activity against patient-derived breast cancer cells xenografted in NOD/SCID mouse assessed as tumor growth suppression at 20 mg/kg, ip administered every 2 days and measured after 21 days; assay type: functional, organism-based; conditions: Homo sapiens, time 21.0 day
MDA-MB-468 [4] = test: Inhibition of cell proliferation in human MDA-MB-468 cells at <=10 uM incubated for 4 days in presence of uridine by CellTiter-Glo luminescent assay; assay type: functional, cell-based; conditions: dose microM <=10, time 4.0 day
MDA-MB-468 [5] = test: Induction of apoptosis in human MDA-MB-468 cells assessed as increase in apoptotic cells incubated for 2 days by annexin-V/FITC propidium iodide staining based flow cytometry analysis; assay type: functional, cell-based; conditions: time 2.0 day
MDA-MB-231 [6] = test: Induction of apoptosis in human MDA-MB-231 cells assessed as increase in apoptotic cells incubated for 2 days by annexin-V/FITC propidium iodide staining based flow cytometry analysis; assay type: functional, cell-based; conditions: time 2.0 day
[7] = Toxicity in NOD/SCID mouse xenografted with patient-derived breast cancer cells assessed as effect on body weight loss at 15 to 60 mg/kg, ip administered 5 times a week and measured after 21 days; assay type: organism-based; conditions: in vivo, 504 h, dose 15-60 mg/kg, time 21 day
[8] = Toxicity in NOD/SCID mouse xenografted with patient-derived breast cancer cells assessed as effect on organ damage at 15 to 60 mg/kg, ip administered 5 times a week and measured after 21 days by hematoxylin and eosin staining based analysis; assay type: organism-based; conditions: in vivo, 504 h, dose 15-60 mg/kg, time 21 day
MDA-MB-231 [9] = test: Inhibition of cell proliferation in human MDA-MB-231 cells at <=10 uM incubated for 4 days in presence of uridine by CellTiter-Glo luminescent assay; assay type: functional, cell-based; conditions: dose microM <=10, time 4.0 day

Chain of Dihydroorotate dehydrogenase (quinone), mitochondrial (Q02127 whole entry, the tested form may be a part): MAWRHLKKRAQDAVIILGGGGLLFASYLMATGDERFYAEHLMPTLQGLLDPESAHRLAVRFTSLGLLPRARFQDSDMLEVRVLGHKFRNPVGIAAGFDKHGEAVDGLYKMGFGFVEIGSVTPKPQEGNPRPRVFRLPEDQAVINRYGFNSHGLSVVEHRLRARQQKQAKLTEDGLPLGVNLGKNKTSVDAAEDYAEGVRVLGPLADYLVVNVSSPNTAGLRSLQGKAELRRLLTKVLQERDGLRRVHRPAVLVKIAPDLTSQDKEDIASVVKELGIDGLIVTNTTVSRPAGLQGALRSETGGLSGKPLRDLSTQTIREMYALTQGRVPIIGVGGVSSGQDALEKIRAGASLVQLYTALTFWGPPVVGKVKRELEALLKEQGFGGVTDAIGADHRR

SMILES: C/C(=C\Cc1c(O)c(Cl)c(C)c(C=O)c1O)CC[C@@]1(C)[C@H](C)CCC(=O)[C@@H]1C [ILICICOLIN C]
IC50 (MDA-MB-468 [1]): 13 µM | IC50 (MDA-MB-231 [2]): 34 µM | IC50 [3]: 1.9 µM

SMILES: C/C(O)=C(\C#N)C(=O)Nc1ccc(C(F)(F)F)cc1 [TERIFLUNOMIDE]
IC50 (MDA-MB-468 [1]): > 20 µM | inhibition (Breast cancer cell line): Active | IC50 (MDA-MB-231 [2]): 14 µM

SMILES: Cc1c(Cl)c2c(c(O)c1C=O)C[C@H]([C@@](C)(O)/C=C/[C@@]1(C)[C@H](C)CCC(=O)[C@@H]1C)O2
IC50 (MDA-MB-468 [1]): 26 µM | IC50 (MDA-MB-231 [2]): 25 µM | IC50 [3]: > 60 µM

SMILES: CC(/C=C/[C@@]1(C)[C@H](C)CCC(=O)[C@@H]1C)=C\Cc1c(O)c(Cl)c(C)c(C=O)c1O [ASCOCHLORIN]
IC50 (MDA-MB-468 [1]): 1.1 µM | IC50 (MDA-MB-231 [2]): 2.2 µM | IC50 [3]: 1.3 µM

SMILES: CC(=O)O[C@@H](CC/C(C)=C/CC/C(C)=C/Cc1c(O)c(Cl)c(C)c(C=O)c1O)C(C)(C)O
inhibition (MDA-MB-468 [4]): inactive | IC50 (MDA-MB-468 [1]): 6 µM | Activity (MDA-MB-468 [5]): Dose-Dependent Effect | Activity (MDA-MB-231 [6]): Dose-Dependent Effect | Activity [7]: Non-Toxic | Activity [8]: Non-Toxic | inhibition (MDA-MB-231 [9]): inactive | IC50 (MDA-MB-231 [2]): 7.4 µM | IC50 [3]: 30 µM

SMILES: CC(/C=C/[C@@]1(C)[C@H](C)CC[C@@H](O)[C@@H]1C)=C\Cc1c(O)c(Cl)c(C)c(C=O)c1O
IC50 (MDA-MB-468 [1]): > 60 µM | IC50 (MDA-MB-231 [2]): > 60 µM | IC50 [3]: 13 µM

SMILES: CC(/C=C/[C@@]1(C)[C@H](C)CCC(=O)[C@@H]1C)=C\Cc1c(O)cc(C)c(C=O)c1O
IC50 (MDA-MB-468 [1]): 38 µM | IC50 (MDA-MB-231 [2]): > 60 µM | IC50 [3]: 42 µM

SMILES: Cc1c(Cl)c(O)c(C[C@@H]2[C@@]3(C)CC[C@H](O)C(C)(C)[C@@H]3CC[C@@]2(C)O)c(O)c1C=O
IC50 (MDA-MB-468 [1]): > 60 µM | IC50 (MDA-MB-231 [2]): > 60 µM | IC50 [3]: 31 µM

More lines, in order of falling IC50 [3], values ahead:

IC50 [3]: 11 µM
SMILES: C/C(=C\Cc1c(O)cc(C)c(C=O)c1O)CC[C@@]1(C)[C@H](C)CCC(=O)[C@@H]1C [ILICICOLIN F]
IC50 (MDA-MB-468 [1]): 27 µM | IC50 (MDA-MB-231 [2]): 26 µM

IC50 [3]: 11 µM
SMILES: C/C(=C\Cc1c(O)c(Cl)c(C)c(C=O)c1O)CC[C@H]1C(C)(C)C(=O)CC[C@@]1(C)O
IC50 (MDA-MB-468 [1]): > 60 µM | IC50 (MDA-MB-231 [2]): > 60 µM

IC50 [3]: 9.3 µM
SMILES: C/C(=C\Cc1c(O)c(Cl)c(C)c(C=O)c1O)CC/C=C(\C)CCC(=O)C(C)(C)O
IC50 (MDA-MB-468 [1]): > 60 µM | IC50 (MDA-MB-231 [2]): > 60 µM

IC50 [3]: 4.7 µM
SMILES: C/C(=C\C[C@@]1(C)[C@H](C)CCC(=O)[C@@H]1C)[C@@H](O)Cc1c(O)c(Cl)c(C)c(C=O)c1O
IC50 (MDA-MB-468 [1]): 15 µM | IC50 (MDA-MB-231 [2]): 41 µM

IC50 [3]: 3.9 µM
SMILES: C=C(/C=C/[C@@]1(C)[C@H](C)CCC(=O)[C@@H]1C)[C@H](O)Cc1c(O)c(Cl)c(C)c(C=O)c1O
IC50 (MDA-MB-468 [1]): 34 µM | IC50 (MDA-MB-231 [2]): 45 µM

IC50 [3]: 0.72 µM
SMILES: C/C(=C\Cc1c(O)c(Cl)c(C)c(C=O)c1O)CC/C=C(\C)[C@@H]1C[C@H](O)C(C)(C)O1
IC50 (MDA-MB-468 [1]): 11 µM | IC50 (MDA-MB-231 [2]): 12 µM
